Assay results published in patent US9321764B2, “Dihydro-pyrrolopyridinone inhibitors” (AbbVie Inc., priority 2013, dated 2016).

How the values were obtained:
[1] = molecular target: T1, BRD4 (BDII_E352-M457) (Homo sapiens, UniProt O60885); assay: TR-FRET bromodomain binding assay, second bromodomain of BRD4; conditions: His-tagged BD2, 30 nM Alexa647 probe; TR-FRET protocol A-E given per row
T1 construct: proliferation; Protocol; made in house
Method: (§1) A time-resolved fluorescence resonance energy transfer (TR-FRET) assay was used to determine the affinities of compounds of the Examples listed in Table 1 for each bromodomain of BRD4. His-tagged first (BD1: amino acids K57-E168) and second (BD2: amino acids E352-E168) bromodomains of BRD4 were expressed and purified. An Alexa647-labeled BET-inhibitor was used as the fluorescent probe in the assay.
(§2) Compound dilution series were prepared in DMSO via an approximately 3-fold serial dilution from one of the following:
(§3) Assay method D: 2.5 mM-800 nM
For Assay methods A, C, and D: Compounds were then diluted 6:100 in assay buffer (20 mM Sodium Phosphate, pH 6.0, 50 mM NaCl, 1 mM Ethylenediaminetetraacetic acid, 0.01% Triton X-100, 1 mM DL-Dithiothreitol) to yield 3× working solutions. […] Twelve μL of this solution were added to the assay plate to reach a final volume of 18 μL.
TR-FRET data were normalized to the means of 24 no-compound controls (“high”) and 8 controls containing 1 μM un-labeled probe (“low”). Percent inhibition was plotted as a function of compound concentration and the data were fit with the 4 parameter logistic equation to obtain IC50s Inhibition constants (Ki) were calculated from the IC50s, probe Kd and probe concentration. Typical Z′ values were between 0.65 and 0.75.

[2] = molecular target: T2, BRD4 (BDI_K57-E168) (Homo sapiens, UniProt O60885); assay: TR-FRET bromodomain binding assay, first bromodomain of BRD4; conditions: His-tagged BD1, 100 nM Alexa647 probe; TR-FRET protocol A-E given per row
T2 construct: BD1: amino acids K57-E168; made in house
Method: as §1, §2
Assay method A: 250 μM-4.2 nM
Assay method B: 0.47 mM to 7.8 nM
Assay method C: 500 μM-8.5 nM
as §3
Assay method E: 0.047 mM to 0.78 nM or 5-fold serial dilution from Assay method D
For Assay methods A, C, and D: Compounds were then diluted 6:100 in assay buffer (20 mM Sodium Phosphate, pH 6.0, 50 mM NaCl, 1 mM Ethylenediaminetetraacetic acid, 0.01% Triton X-100, 1 mM DL-Dithiothreitol) to yield 3× working solutions. Six microliters (μL) of the working solution was then transferred to white, low-volume assay plates (Costar #3673). A 1.5× assay mixture containing His-tagged bromodomain, Europium-conjugated anti-His antibody (Invitrogen PV5596) and the Alexa-647-conjugated probe molecule was also prepared. Twelve μL of this solution were added to the assay plate to reach a final volume of 18 μL.
For Assay methods B and E: Compound dilutions were added directly into white, low-volume assay plates (Perkin Elmer Proxiplate 384 Plus #6008280) using a Labcyte Echo in conjunction with Labcyte Access and Thermo Multidrop CombinL robotics. Compounds were then suspended in eight microliters (μL) of assay buffer (20 mM Sodium Phosphate, pH 6.0, 50 mM NaCl, 1 mM Ethylenediaminetetraacetic acid disodium salt dihydrate, 0.01% Triton X-100, 1 mM DL-Dithiothreitol) containing His-tagged bromodomain, Europium-conjugated anti-His antibody (Invitrogen PV5596) and Alexa-647-conjugated probe.
The final concentration of 1× assay mixture for assay methods A, B, C, D, and E contains 2% DMSO, 8 nM His-tagged bromodomain, 1 nM Europium-conjugated anti-His-tag antibody and 100 nM or 30 nM probe (for BDI or BDII, respectively) and compound concentration in the range of: 5 μM-85 pM for method A, 9.19 μM 150 pM for method B, 10 μM-169 pM for method C, 50 μM-16 nM for method D, and 0.92 μM-15 pM for method E.
After a one-hour equilibration at room temperature, TR-FRET ratios were determined using an Envision multilabel plate reader (Ex 340, Em 495/520).
TR-FRET data were normalized to the means of 24 no-compound controls (“high”) and 8 controls containing 1 μM un-labeled probe (“low”). Percent inhibition was plotted as a function of compound concentration and the data were fit with the 4 parameter logistic equation to obtain IC50s Inhibition constants (Ki) were calculated from the IC50s, probe Kd and probe concentration. Typical Z′ values were between 0.65 and 0.75. The minimum significant ratio was determined to evaluate assay reproducibility (Eastwood et al., (2006) J Biomol Screen, 11: 253-261). The MSR was determined to be 2.03 for BDI and 1.93 for BDII, and a moving MSR (last six run MSR overtime) for both BDI and BDII was typically <3.

SMILES: Cn1cc(-c2cc(NCc3ccnc4ccccc34)ccc2Oc2ccc(F)cc2F)c2cc[nH]c(=O)c21 [Example 179, 3-{2-(2,4-difluorophenoxy)-5-[(quinolin-4-ylmethyl)amino]phenyl}-1-methyl-1,6-dihydro-7H-pyrrolo[2,3-c]pyridin-7-one]
- Ki [1]: 231 nM
- Ki [2]: 69.9 nM

SMILES: CCS(=O)(=O)c1ccc(Oc2ccc(Cl)cc2Cl)c(-c2cn(C)c3c(=O)[nH]ccc23)c1 [Example 82, 3-[2-(2,4-dichlorophenoxy)-5-(ethylsulfonyl)phenyl]-1-methyl-1,6-dihydro-7H-pyrrolo[2,3-c]pyridin-7-one]
- Ki [1]: 49 nM
- Ki [2]: 66 nM

SMILES: Cn1cc(-c2cc(F)cnc2Nc2ccc(F)cc2)c2cc[nH]c(=O)c21 [Example 145, 3-{5-fluoro-2-[(4-fluorophenyl)amino]pyridin-3-yl}-1-methyl-1,6-dihydro-7H-pyrrolo[2,3-c]pyridin-7-one]
- Ki [1]: 296 nM
- Ki [2]: 174 nM

SMILES: Cn1cc(-c2cc(CN3CCC(C(F)(F)F)CC3)ccc2Oc2ccc(F)cc2F)c2cc[nH]c(=O)c21 [Example 129, 3-[2-(2,4-difluorophenoxy)-5-{[4-(trifluoromethyl)piperidin-1-yl]methyl]phenyl}-1-methyl-1,6-dihydro-7H-pyrrolo[2,3-c]pyridin-7-one]
- Ki [1]: 1190 nM
- Ki [2]: 1140 nM

SMILES: CCS(=O)(=O)c1ccc(Oc2ccc(Cl)c(Cl)c2)c(-c2cn(C)c3c(=O)[nH]ccc23)c1 [Example 76, 3-[2-(3,4-dichlorophenoxy)-5-(ethylsulfonyl)phenyl]-1-methyl-1,6-dihydro-7H-pyrrolo[2,3-c]pyridin-7-one]
- Ki [1]: 64 nM
- Ki [2]: 77 nM

SMILES: Cn1cc(-c2cc(NC(=O)CCc3ccccc3)ccc2Oc2ccc(F)cc2F)c2cc[nH]c(=O)c21 [Example 152, N-[4-(2,4-difluorophenoxy)-3-(1-methyl-7-oxo-6,7-dihydro-1H-pyrrolo[2,3-c]pyridin-3-yl)phenyl]-3-phenylpropanamide]
- Ki [1]: 95.3 nM
- Ki [2]: 141 nM

SMILES: Cn1cc(-c2cc(NC(=O)Cc3ccc4c(c3)CCCO4)ccc2Oc2ccc(F)cc2F)c2cc[nH]c(=O)c21 [Example 162, N-[4-(2,4-difluorophenoxy)-3-(1-methyl-7-oxo-6,7-dihydro-1H-pyrrolo[2,3-c]pyridin-3-yl)phenyl]-2-(3,4-dihydro-2H-chromen-6-yl)acetamide]
- Ki [1]: 183 nM
- Ki [2]: 146 nM

SMILES: Cn1cc(-c2cc(CN)ccc2Oc2ccc(F)cc2F)c2cc[nH]c(=O)c21 [Example 136, 3-[5-(aminomethyl)-2-(2,4-difluorophenoxy)phenyl]-1-methyl-1,6-dihydro-7H-pyrrolo[2,3-c]pyridin-7-one]
- Ki [1]: 1320 nM
- Ki [2]: 1090 nM

SMILES: Cn1cc(-c2cc(S(C)(=O)=O)ccc2OCCC2CCCCC2)c2cc[nH]c(=O)c21 [Example 36, 3-[2-(2-cyclohexylethoxy)-5-(methylsulfonyl)phenyl]-1-methyl-1,6-dihydro-7H-pyrrolo[2,3-c]pyridin-7-one]
- Ki [1]: 515 nM
- Ki [2]: 146 nM

SMILES: Cn1cc(-c2cc(NC(=O)C3CCN(c4ccccc4)C3=O)ccc2Oc2ccc(F)cc2F)c2cc[nH]c(=O)c21 (stereo not drawn) [Example 157, N-[4-(2,4-difluorophenoxy)-3-(1-methyl-7-oxo-6,7-dihydro-1H-pyrrolo[2,3-c]pyridin-3-yl)phenyl]-2-oxo-1-phenylpyrrolidine-3-carboxamide]
- Ki [1]: 333 nM
- Ki [2]: 118 nM

SMILES: CCS(=O)(=O)Nc1ccc(Oc2ccc(F)cc2F)c(-c2cn(C)c3c(=O)[nH]ccc23)c1 [Example 4, N-[4-(2,4-difluorophenoxy)-3-(1-methyl-7-oxo-6,7-dihydro-1H-pyrrolo[2,3-c]pyridin-3-yl)phenyl]ethanesulfonamide]
- Ki [1]: 7.2 nM
- Ki [2]: 5.9 nM

SMILES: CCS(=O)(=O)c1ccc(Oc2ccc(OC)cc2Cl)c(-c2cn(C)c3c(=O)[nH]ccc23)c1 [Example 85, 3-[2-(2-chloro-4-methoxyphenoxy)-5-(ethylsulfonyl)phenyl]-1-methyl-1,6-dihydro-7H-pyrrolo[2,3-c]pyridin-7-one]
- Ki [1]: 17 nM
- Ki [2]: 44 nM
